Data as given in EP4663632A1, “COMPOUNDS USEFUL FOR THE MODULATION OF THE ACTIVITY OF STING” (Sulis Therapeutics ApS, priority 2024, dated 2025).

Key:
STING [1] = target: T1, STING (Homo sapiens, UniProt Q86WV6); experiment: Western Blot analysis of STING phosphorylation in human fibroblast cells (STING agonism); assay type: cell-based; design: host or cells: HFF-1 human foreskin fibroblasts; details: 7.2µM-3.6nM; 24h
Protocol: Human fibroblast were treated with a titration of E22, E9, E14 and E16 (7.2µM-3.6nM) for 24h prior to cell lysis and subsequently total STING, pSTING and Vinculin were assessed by western blot using rabbit anti-STING (1:1000), anti-pSTING (1:1000), anti-Vinculin (1:1000) and 2nd anti-rabbit-HRP (1:10.000) or anti-mouse-HRP (1:7500). Proteins were visualized using ImageQuant800. Control cells included untreated cells and cells treated with 300nM diABZI C3.

STING [2] = target: T2, STING (Mus musculus, UniProt Q3TBT3); experiment: IFN-β secretion from mouse RAW264.7 cells treated with diABZI; assay type: cell-based; design: endogenous in cells; host or cells: RAW264.7 mouse cells; details: 1.8 µM diABZI c3 and 0.05 µM Example compound
T2 sequence (Q3TBT3 1-378): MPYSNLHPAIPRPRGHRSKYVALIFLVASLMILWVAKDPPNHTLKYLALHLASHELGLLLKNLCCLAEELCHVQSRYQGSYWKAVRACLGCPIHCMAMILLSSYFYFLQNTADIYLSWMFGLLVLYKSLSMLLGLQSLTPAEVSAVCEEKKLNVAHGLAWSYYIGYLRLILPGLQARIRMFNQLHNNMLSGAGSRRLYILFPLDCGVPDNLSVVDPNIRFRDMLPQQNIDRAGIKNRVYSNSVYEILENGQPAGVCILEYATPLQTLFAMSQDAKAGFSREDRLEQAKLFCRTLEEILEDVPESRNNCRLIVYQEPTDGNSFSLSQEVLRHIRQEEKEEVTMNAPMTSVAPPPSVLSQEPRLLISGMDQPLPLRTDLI
Protocol: As expected, RAW264.7 cells treated with 1.8 µM diABZI c3 increased IFN-β secretion, resulting in a media concentration of around 1000 pg/mL. In contrast, cells treated with 1.8 µM diABZI c3 and 0.05 µM Example compounds 14, 16 or 24 reduced this expression to approximately 500 pg/mL.

[3] = Pharmacokinetic profiling of Example compounds in mouse; assay type: in vivo; details: mice
Protocol: Mice were administered with either 10 mg/kg Example compound 16 (Figure 10A) or 8 mg/kg Example compound 24 (Figure 10B) by subcutaneous injection. Plasma concentration of test compound was measured over the course of 8 hours.

STING [4] = target: T1, STING; experiment: Western Blot analysis for STING degradation in H1650 cells; assay type: cell-based; details: 0.22 µM, 0.67 µM, 2 µM and 6 µM
Protocol: To assess STING degradation in H596 cells (ATCC, HTB-178) cells were seeded at a density of 100.000 cells/well in 24-well Nunclon Delta surface treated culture plate in RPMI-1640 growth medium (supplemented with 10% FBS, 1% Pen-strep). Cells were incubated over-night at 37°C 5% CO2 to allow adhesion. Next day growth medium was renewed and a 5x concentration of test compounds (2.5% DMSO) diluted in growth medium were added to the appropriate well. Final DMSO concentration was 0.5%. Cell culture plates were returned to the incubator for additional 24h. Final test compound concentrations were 0.22 µM, 0.67 µM, 2 µM and 6 µM.
For cell lysis, western blotting and data analysis, the methods described above for HFF-1 cells were applied.
Similar protocols were carried out to assess STING degradation in H1650 cells (Figure 1, top panel) and HaCat cells (Figure 1, bottom panel) using Example compounds 14, 16 and 24, except that the seeding density was 150,000 cells/well and 250,000 cells/well for H1650 cells and HaCat cells, respectively.

[5] = target: C-terminal domain (CTD) of human STING (Homo sapiens, UniProt Q86WV6); experiment: STING binding FP assay II; design: recombinant human STING protein (155-379); details: 7 nM STING
Chain of C-terminal domain (CTD) of human STING (Q86WV6 155-379): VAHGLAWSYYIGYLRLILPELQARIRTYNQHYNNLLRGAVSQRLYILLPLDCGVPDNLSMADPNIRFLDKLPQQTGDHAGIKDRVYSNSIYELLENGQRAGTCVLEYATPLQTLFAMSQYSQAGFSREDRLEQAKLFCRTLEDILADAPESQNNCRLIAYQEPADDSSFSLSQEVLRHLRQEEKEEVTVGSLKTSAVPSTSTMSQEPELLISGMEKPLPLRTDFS

T1 sequence (Q86WV6 whole entry): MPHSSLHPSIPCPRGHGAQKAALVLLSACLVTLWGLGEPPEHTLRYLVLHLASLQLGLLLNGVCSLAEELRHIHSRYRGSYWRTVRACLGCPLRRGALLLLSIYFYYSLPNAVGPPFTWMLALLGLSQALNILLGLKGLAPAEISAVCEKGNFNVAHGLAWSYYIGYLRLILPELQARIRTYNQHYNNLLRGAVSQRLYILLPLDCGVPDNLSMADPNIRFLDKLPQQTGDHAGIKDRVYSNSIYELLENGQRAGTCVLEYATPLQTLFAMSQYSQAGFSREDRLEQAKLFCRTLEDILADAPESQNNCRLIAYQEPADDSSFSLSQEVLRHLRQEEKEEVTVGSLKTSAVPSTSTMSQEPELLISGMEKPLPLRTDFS

CCn1nc(C)cc1C(=O)N=c1n(C)c2cc(C(N)=O)ccc2n1CCC(CCn1c(=NC(=O)c2cc(C)nn2CC)n(C)c2cc(C(N)=O)ccc21)OCC(=O)NCCOCCOCCOCCOCCC(=O)NCCOCCOCCOCCOCCNc1cccc2c1C(=O)N(C1CCC(=O)NC1=O)C2=O (stereo not drawn) [Example 16]
STING phosphorylation (pSTING) (STING [1]): no STING phosphorylation was observed | total STING protein levels (STING [1]): total STING protein levels were observed to decrease | IFN-β media concentration (STING [2]): approximately 500 pg/mL | plasma exposure ([3]; subcutaneous injection (10 mg/kg Example compound 16, 8 mg/kg Example compound 24)): prolonged plasma exposure | concentration at 8 h ([3]; mouse, plasma, sc, 10 mg/kg subcutaneous injection, read-out: plasma concentration 8 hours after injection): ~100 nM | STING degradation (Western Blot, Figure 1) (STING [4]): induced STING degradation in all cell lines tested at all concentrations tested | IC50 [5]: 4.5 nM

CCn1nc(C)cc1C(=O)N=c1n(C)c2cc(C(N)=O)ccc2n1CCC(CCn1c(=NC(=O)c2cc(C)nn2CC)n(C)c2cc(C(N)=O)ccc21)OCC(=O)NCCOCCOCCOCCOCCC(=O)NCCOCCOCCOCCOCC(=O)N[C@H](C(=O)N1C[C@H](O)C[C@H]1C(=O)NCc1ccc(-c2scnc2C)cc1)C(C)(C)C (stereo partly drawn) [Example 14]
STING phosphorylation (pSTING) (STING [1]): no STING phosphorylation was observed | total STING protein levels (STING [1]): total STING protein levels were observed to decrease | IFN-β media concentration (STING [2]): approximately 500 pg/mL | STING degradation (Western Blot, Figure 1) (STING [4]): inducing visible degradation in H1650 and H596 at the higher concentrations tested | IC50 [5]: 5.7 nM
